Measured values reported in the supplement of paper PMC10307832.

Legend:
Assay in all cases: relative viability (nuclei count vs DMSO), 5 days (fraction); higher = more cells survive
Bleomycin + OSI-027 = compound: CC1=C(N=C(N=C1N)[C@H](CC(=O)N)NC[C@@H](C(=O)N)N)C(=O)N[C@@H]([C@H](C2=CN=CN2)OC3C(C(C(C(O3)CO)O)O)OC4C(C(C(C(O4)CO)O)OC(=O)N)O)C(=O)N[C@H](C)[C@H]([C@H](C)C(=O)N[C@@H]([C@@H](C)O)C(=O)NCCC5=NC(=CS5)C6=NC(=CS6)C(=O)NCCC[S+](C)C)O [Bleomycin] + COc1cccc2cc(-c3nc([C@H]4CC[C@H](C(=O)O)CC4)n4ncnc(N)c34)[nH]c12 [OSI-027] (partner 0.5 µM); details: main component drawn
Method in brief: (§1)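 Lung cancer cell lines in 1536-well plates got either a single drug or a fixed anchor-drug dose together with five library-drug doses (not always all listed) in √10 steps, by pin tool, on the day after seeding. Nuclei were counted after 5 days, and relative viability is the treated-to-vehicle ratio of nuclei counts. Values are medians of duplicate plates.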

Etoposide + Lapatinib = compound: COc1cc([C@@H]2c3cc4c(cc3[C@@H](O[C@@H]3O[C@@H]5CO[C@@H](C)O[C@H]5[C@H](O)[C@H]3O)[C@H]3COC(=O)[C@H]23)OCO4)cc(OC)c1O [Etoposide] + CS(=O)(=O)CCNCc1ccc(-c2ccc3ncnc(Nc4ccc(OCc5cccc(F)c5)c(Cl)c4)c3c2)o1 [Lapatinib] (partner 2 µM)
Method in brief: as §1

Etoposide + Dasatinib = compound: COc1cc([C@@H]2c3cc4c(cc3[C@@H](O[C@@H]3O[C@@H]5CO[C@@H](C)O[C@H]5[C@H](O)[C@H]3O)[C@H]3COC(=O)[C@H]23)OCO4)cc(OC)c1O [Etoposide] + Cc1nc(Nc2ncc(C(=O)Nc3c(C)cccc3Cl)s2)cc(N2CCN(CCO)CC2)n1 [Dasatinib] (partner 0.075 µM)
Method in brief: as §1

Bleomycin + Pictilisib = compound: CC1=C(N=C(N=C1N)[C@H](CC(=O)N)NC[C@@H](C(=O)N)N)C(=O)N[C@@H]([C@H](C2=CN=CN2)OC3C(C(C(C(O3)CO)O)O)OC4C(C(C(C(O4)CO)O)OC(=O)N)O)C(=O)N[C@H](C)[C@H]([C@H](C)C(=O)N[C@@H]([C@@H](C)O)C(=O)NCCC5=NC(=CS5)C6=NC(=CS6)C(=O)NCCC[S+](C)C)O [Bleomycin] + CS(=O)(=O)N1CCN(Cc2cc3nc(-c4cccc5[nH]ncc45)nc(N4CCOCC4)c3s2)CC1 [Pictilisib] (partner 1 µM); details: main component drawn
Method in brief: as §1

Row | Cell Line | relative viability (Bleomycin + OSI-027; first compound 0.01 µM) | relative viability (Bleomycin + OSI-027; first compound 0.03162 µM) | relative viability (Bleomycin + OSI-027; first compound 0.1 µM) | relative viability (Bleomycin + OSI-027; first compound 0.3162 µM) | relative viability (Bleomycin + OSI-027; first compound 1 µM) | relative viability (Etoposide + Lapatinib; first compound 0.01 µM) | relative viability (Etoposide + Lapatinib; first compound 0.03162 µM) | relative viability (Etoposide + Lapatinib; first compound 0.1 µM) | relative viability (Etoposide + Lapatinib; first compound 0.3162 µM) | relative viability (Etoposide + Lapatinib; first compound 1 µM) | relative viability (Etoposide + Dasatinib; first compound 0.01 µM) | relative viability (Etoposide + Dasatinib; first compound 0.03162 µM) | relative viability (Etoposide + Dasatinib; first compound 0.1 µM) | relative viability (Etoposide + Dasatinib; first compound 0.3162 µM) | relative viability (Etoposide + Dasatinib; first compound 1 µM) | relative viability (Bleomycin + Pictilisib; first compound 0.01 µM) | relative viability (Bleomycin + Pictilisib; first compound 0.03162 µM) | relative viability (Bleomycin + Pictilisib; first compound 0.1 µM) | relative viability (Bleomycin + Pictilisib; first compound 0.3162 µM) | relative viability (Bleomycin + Pictilisib; first compound 1 µM)
1 | NCI-H647 | 0.195 | 0.184 | 0.184 | 0.0871 | 0.0587 | 1.05 | 0.984 | 0.797 | 0.185 | 0.0906 | 0.157 | 0.161 | 0.174 | 0.145 | 0.036 | 0.251 | 0.254 | 0.191 | 0.105 | 0.0791
2 | H3255 | 0.524 | 0.6 | 0.504 | 0.53 | 0.429 | 0.234 | 0.241 | 0.228 | 0.262 | 0.196 | 0.424 | 0.367 | 0.345 | 0.306 | 0.274 | 0.442 | 0.414 | 0.431 | 0.287 | 0.276
3 | NCI-H650 | 0.433 | 0.546 | 0.481 | 0.429 | 0.234 | 0.657 | 0.951 | 0.409 | 0.418 | 0.207 | 0.457 | 0.472 | 0.342 | 0.372 | 0.215 | 0.628 | 0.764 | 0.728 | 0.483 | 0.25
4 | NCI-H2023 | 0.297 | 0.328 | 0.284 | 0.183 | 0.111 | 0.886 | 0.895 | 0.293 | 0.372 | 0.0709 | 0.492 | 0.554 | 0.378 | 0.326 | 0.125 | 0.225 | 0.193 | 0.158 | 0.124 | 0.0805
5 | NCI-H2347 | 0.338 | 0.505 | 0.373 | 0.199 | 0.303 | 1.13 | 0.835 | 0.547 | 0.406 | 0.422 | 0.365 | 0.294 | 0.293 | 0.255 | 0.249 | 0.605 | 0.599 | 0.532 | 0.271 | 0.575
6 | NCI-H1944 | 0.279 | 0.278 | 0.224 | 0.179 | 0.151 | 0.76 | 1.01 | 0.499 | 0.363 | 0.226 | 0.213 | 0.23 | 0.159 | 0.189 | 0.102 | 0.284 | 0.282 | 0.271 | 0.204 | 0.184
7 | NCI-H1793 | 0.271 | 0.311 | 0.249 | 0.156 | 0.138 | 0.543 | 0.682 |  | 0.687 | 0.288 | 0.402 | 0.348 |  | 0.419 | 0.214 | 0.398 | 0.314 | 0.312 | 0.233 | 0.169
8 | NCI-H596 | 0.48 | 0.561 | 0.512 | 0.304 | 0.278 | 0.94 | 1.03 |  | 1.08 | 0.625 | 0.608 | 0.657 | 0.543 | 0.647 | 0.507 | 0.379 | 0.419 | 0.329 | 0.268 | 0.261
9 | NCI-H520 | 0.272 | 0.299 | 0.21 | 0.208 | 0.198 | 0.839 | 0.829 | 0.563 | 0.72 | 0.437 | 0.22 | 0.239 | 0.181 | 0.208 | 0.269 | 0.298 | 0.301 | 0.287 | 0.256 | 0.238
10 | EKVX | 0.636 | 0.711 | 0.598 | 0.398 | 0.387 | 0.195 | 0.197 | 0.153 | 0.159 | 0.143 | 0.619 | 0.529 | 0.354 | 0.37 | 0.282 | 0.422 | 0.39 | 0.376 | 0.212 | 0.189
11 | NCI-H358 | 0.73 | 0.67 | 0.662 | 0.335 | 0.185 | 0.507 | 0.437 | 0.369 | 0.268 | 0.152 | 0.166 | 0.179 | 0.112 | 0.149 | 0.106 | 0.349 | 0.355 | 0.34 | 0.233 | 0.228
12 | EPLC-272H | 0.258 | 0.257 | 0.21 | 0.147 | 0.149 | 0.862 | 1.05 | 0.497 | 0.807 | 0.408 | 0.373 | 0.342 | 0.222 | 0.354 | 0.245 | 0.288 | 0.352 | 0.265 | 0.137 | 0.161
13 | NCI-H1563 | 0.67 | 0.806 | 0.657 | 0.577 | 0.581 | 0.935 | 0.868 | 0.817 | 0.646 | 0.526 | 0.416 | 0.514 | 0.435 | 0.387 | 0.349 | 0.608 | 0.698 | 0.623 | 0.574 | 0.533
14 | NCI-H1395 | 0.533 | 0.647 | 0.516 | 0.367 | 0.404 | 0.907 | 1.09 | 0.969 | 0.836 | 0.74 | 0.422 | 0.414 | 0.368 | 0.406 | 0.438 | 0.579 | 0.6 | 0.476 | 0.686 | 0.489
15 | NCI-H2228 | 0.473 | 0.467 | 0.534 | 0.264 | 0.164 | 0.84 | 1.05 | 0.846 | 0.703 | 0.138 | 0.61 | 0.473 | 0.306 | 0.418 | 0.131 | 0.553 | 0.356 | 0.386 | 0.361 | 0.328
